Results reported in patent US7223759B2, “Antibacterial 3,5-diaminopiperidine-substituted aromatic and heteroaromatic compounds” (Anadys Pharmaceuticals, Inc., priority 2003, dated 2007).

tested on: Escherichia coli (ATCC25922) or Staphylococcus aureus (ATCC25923); test: Antibacterial MIC, microdilution method in Mueller-Hinton medium; assay type: cell-based; details: Escherichia coli, 18 h, MIC in E. coli or S. aureus; two-fold serial dilutions 64 to 0.5 μg/ml in duplicate; 18 hours of incubation at 35° C.; read-out: Potency (MIC)
In short: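 Two-fold serial dilutions from 64 to 0.5 μg/ml, in duplicate, by broth microdilution in Mueller-Hinton medium (NCCLS M7-A5). MIC taken as the lowest concentration preventing visible growth after 18 h at 35° C.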

MIC [µg/mL]	Structure (SMILES)
< 64	Cc1ccc(C(=O)Nc2ccc(Nc3nc(N4CC(N)C4)nc(N4C[C@H](N)C[C@H](N)C4)n3)cc2O)cc1.Cl [N-{4-[4-(3-Amino-azetidin-1-yl)-6-((3R,5S)-3,5-diamino-piperidin-1-yl)-[1,3,5]triazin-2-ylamino]-2-hydroxy-phenyl}-4-methyl-benzamide]
> 64	O=S(=O)(Nc1ccc2cn[nH]c2c1)c1ccc(Nc2nc(N3CCCCC3)nc(N3CCNCC3)n2)cc1 [4-[4-((3S,5R)-3,5-Diamino-piperidin-1-yl)-6-piperazin-1-yl[1,3,5,-triazin-2-ylamino]-N-(1H-indazol-6-yl)-benzenesulfonamide]
> 64	CN1CCCC1CCNc1nc(N2C[C@H](N)C[C@H](N)C2)nc(N2C[C@H](N)C[C@H](N)C2)n1.Cl (stereo partly drawn) [N-[2-(1-medthyl-pyrrolidin-2-yl)-ethyl]-4,6-Bis-((3R,5S)-3,5-diamino-piperidin-1-yl)-[1,3,5]triazine-2-amine]
< 64	Cc1ccc(C(=O)Nc2ccc(Nc3nc(N4CCCCC4)nc(N4CCC(N5CCCC5)CC4)n3)cc2O)cc1 [N-{4-[4-((3R,5S)-3,5-Diamino-piperidin-1-yl)-6-(4-pyrrolidin-1-yl-piperidin-1-yl)-[1,3,5]triazin-2-ylamino]-2-hydroxy-phhenyl}-4-methyl-benzamide]
< 64	Cl.O=C(Oc1ccccc1)c1ccc(Nc2nc(N3CCCCC3)nc(N3CCCC3)n2)cc1O [4-[4-((3S,5R)-3,5-Diamino-piperidin-1-yl)-6-((3R,4S)-3,4-dihydroxy-pyrrolidin-1-yl)-[1,3,5]triazin-2-ylamino]-2-hydrooxy-benzoic acidphenyl ester]
> 64	CNC(=N)Nc1ccc(Nc2nc(C3CCCCC3)nc(N3CCCCC3)n2)cc1.Cl [N-[4-(N-methyl-quanidino)-phenyl]-4,6-Bis-((3R,5S)-3,5-diamino-piperidin-1-yl)-[1,3,5]triazine-2-amine]

same assay, conditions: Escherichia coli, 18 h, read-out: Potency (MIC)

Structure (SMILES)	MIC [µg/mL]
N[C@@H]1C[C@H](N)CN(c2nc(NCc3ccc4c(c3)OCO4)nc(N3C[C@H](N)C[C@H](N)C3)n2)C1 [N-benzo[1,3]dioxol-5-ylmethyl-4,6-Bis-((3R,5S)-3,5-diamino-piperidin-1-yl)-[1,3,5]triazine-2-amine]	> 64
COc1ccc(NC(=O)c2ccc(Nc3nc(N4C[C@H](N)C[C@H](N)C4)nc(N4C[C@H](N)C[C@H](N)C4)n3)cc2O)cc1 [N-[3-hydroxy-4-(4-methoxy-phenylcarbamoyl)-phenyl]-4,6-Bis-((3R,5S)-3,5-diamino-piperidin-1-yl)-[1,3,5]triazine-2-amine]	< 64
Cc1cc(=O)oc2cc(Nc3nc(N4C[C@H](N)C[C@H](N)C4)nc(N4C[C@H](O)C[C@H]4CN)n3)ccc12 [7-[4-((2S,4R)-2-Aminomethyl-4-hydroxy-pyrrolidin-1-yl)-6-((3R,5S)-3,5-diamino-piperidin-1-yl)-[1,3,5]triazin-2-ylamino]-4-methyl-chromen-2-one]	> 64
Cc1ccc(NNc2nc(N3C[C@H](N)C[C@H](N)C3)nc(N3C[C@H](N)C[C@H](N)C3)n2)cc1 [N-(4,6-Bis-((3R,5S)-3,5-diamino-piperidin-1-yl)-[1,3,5]triazin-2-yl)-N′-p-Tolyl-hydrazine]	< 64
N[C@@H]1C[C@H](N)CN(c2nc(Nc3ccc(-c4ccccc4)cc3)nc(N3C[C@H](N)C[C@H](N)C3)n2)C1 [N-biphenyl-4-yl-4,6-Bis-((3R,5S)-3,5-diamino-piperidin-1-yl)-[1,3,5]triazine-2-amine]	< 64
N[C@@H]1C[C@H](N)CN(c2nc(NCCc3ccc(Cl)cc3Cl)nc(N3C[C@H](N)C[C@H](N)C3)n2)C1 [N-[2-(2,4-dichloro-phenyl)-ethyl]-4,6-Bis-((3R,5S)-3,5-diamino-piperidin-1-yl)-[1,3,5]triazine-2-amine]	> 64
N#CCCNS(=O)(=O)c1ccc(Cl)c(Nc2nc(N3C[C@H](N)C[C@H](N)C3)nc(N3C[C@H](N)C[C@H](N)C3)n2)c1 [N-[2-chloro-5-(2-cyano-ethylsulfamoyl)-phenyl]-4,6-Bis-((3R,5S)-3,5-diamino-piperidin-1-yl)-[1,3,5]triazine-2-amine]	> 64
Cc1ccc(C(=O)Nc2ccc(Nc3nc(NC4CCNCC4)nc(N4C[C@H](N)C[C@H](N)C4)n3)cc2O)cc1 [N-{4-[4-((3R,5S)-3,5-Diamino-piperidin-1-yl)-6-(piperidin-4-ylamino)-[1,3,5]triazin-2-ylamino]-2-hydroxy-phenyl}-4-methyl-benzamide]	< 16
N[C@@H]1C[C@H](N)CN(c2nc(Nc3ccc(C(=O)Nc4ccc5[nH]cnc5c4)c(O)c3)nc(N3C[C@H](N)C[C@H](N)C3)n2)C1 [N-[4-(1H-benzoimidazol-5-ylcarbamoyl)-3-hydroxy-phenyl]-4,6-Bis-((3R,5S)-3,5-diamino-piperidin-1-yl)-[1,3,5]triazine-2-amine]	< 16
N[C@@H]1C[C@H](N)CN(c2nc(Nc3ccc(NC(=O)c4ccc(F)cc4O)c(Cl)c3)nc(N3C[C@H](N)C[C@H](N)C3)n2)C1 [N-[3-chloro-4-(4-fluoro-2-hydroxy-benzoylamino)-phenyl]-4,6-Bis-((3R,5S)-3,5-diamino-piperidin-1-yl)-[1,3,5]triazine-2-amine]	> 64
Cc1cc(NC(=O)c2ccc(O)cc2O)ccc1Nc1nc(N2C[C@H](N)C[C@H](N)C2)nc(N2C[C@H](N)C[C@H](N)C2)n1 [N-[4-(2,4-dihydroxy-benzoylamino)-2-methyl-phenyl]-4,6-Bis-((3R,5S)-3,5-diamino-piperidin-1-yl)-[1,3,5]triazine-2-amine]	< 64
N[C@@H]1C[C@H](N)CN(c2nc(Nc3ccc(NC(=O)c4ccc(C(F)(F)F)nc4O)c(O)c3)nc(N3C[C@H](N)C[C@H](N)C3)n2)C1 [N-{3-hydroxy-4-[(2-hydroxy-6-trifluoromethyl-pyridine-3-carbonyl)-amino]-phenyl}-4,6-Bis-((3R,5S)-3,5-diamino-piperidin-1-yl)-[1,3,5]triazine-2-amine]	< 64
N[C@@H]1C[C@H](N)CN(c2nc(Nc3ccc(C(=O)CC(=O)NCc4ccc5c(c4)OCO5)cc3)nc(N3C[C@H](N)C[C@H](N)C3)n2)C1 [N-(4-{2-[(benzo[1,3]dioxol-5-ylmethyl)-carbamoyl]-acetyl}-phenyl)-4,6-Bis-((3R,5S)-3,5-diamino-piperidin-1-yl)-[1,3,5]triazine-2-amine]	> 64
NC[C@@H]1C[C@H](N)CN1c1nc(Nc2ccc(C(=O)CC(=O)Nc3ccc(SC(F)(F)F)cc3)cc2)nc(N2C[C@H](N)C[C@H](N)C2)n1 [3-{4-[4-((2S,4S)-4-Amino-2-aminomethyl-pyrrolidin-1-yl)-6-((3R,5S)-3,5-diamino-piperidin-1-yl)-[1,3,5]triazin-2-ylamino]-phenyl}-3-oxo-N-(4-trifluoromethylsulfanyl-phenyl)-propionamide]	< 16
N[C@@H]1C[C@H](N)CN(c2nc(Nc3ccc(C(=O)NCc4ccc5c(c4)OCO5)c(O)c3)nc(N3C[C@H](N)C[C@H](N)C3)n2)C1 [N-{4-[(benzo[1,3]dioxol-5-ylmethyl)-carbamoyl]-3-hydroxy-phenyl}-4,6-Bis-((3R,5S)-3,5-diamino-piperidin-1-yl)-[1,3,5]triazine-2-amine]	< 64
N[C@@H]1C[C@H](N)CN(c2nc(Nc3ccc(C(=O)Nc4ccc(F)c(Cl)c4)c(O)c3)nc(N3C[C@H](N)C[C@H](N)C3)n2)C1 [N-[4-(3-chloro-4-fluoro-phenylcarbamoyl)-3-hydroxy-phenyl]-4,6-Bis-((3R,5S)-3,5-diamino-piperidin-1-yl)-[1,3,5]triazine-2-amine]	< 16
